Measurements reported in patent US20260022341A1, “METHOD OF GENERATING A HOMOCELLULAR PROGENITOR CELL CULTURE FROM A HETEROCELLULAR TISSUE SAMPLE” (MOSA MEAT B.V., priority 2022, published 2026).
“Also recorded” adds a separate entry of the source.

B1: vitronectin: extracellular matrix protein used as tissue culture vessel coating (protein, UniProt P04004 20-478, looked up)
Vitronectin: DQESCKGRCTEGFNVDKKCQCDELCSYYQSCCTDYTAECKPQVTRGDVFTMPEDEYTVYDDGEEKNNATVHEQVGGPSLTSDLQAQSKGNPEQTPVLKPEEEAPAPEVGASKPEGIDSRPETLHPGRPQPPAEEELCSGKPFDAFTDLKNGSLFAFRGQYCYELDEKAVRPGYPKLIRDVWGIEGPIDAAFTRINCQGKTYLFKGSQYWRFEDGVLDPDYPRNISDGFDGIPDNVDAALALPAHSYSGRERVYFFKGKQYWEYQFQHQPSQEECEGSSLSAVFEHFAMMQRDSWEDIFELLFWGRTSAGTRQPQFISRDWHGVPGQVDAAMAGRIYISGMAPRPSLAKKQRFRHRNRKGYRSQRGHSRGRNQNSRRPSRATWLSLFSSEESNLGANNYDDYRMDWLVPATCEPIQSVFFFSGDKYYRVNLRTRRVDTVDPPYPRSIAQYWLGCPAPGHL
B2: PDGF-bb: growth factor of the base medium (protein, UniProt P01127 82-190, looked up)
Platelet-derived growth …: SLGSLTIAEPAMIAECKTRTEVFEISRRLIDRTNANFLVWPPCVEVQRCSGCCNNRNVQCRPTQVQLRPVQVRKIEIVRKKPIFKKATVTLEDHLACKCETVAAARPVT

What was measured:
Format in all cases: cell-based, bovine
SCs and FAPs [1] = assay: Compound screening: ratio of SCs in a cell culture of SCs and FAPs after one passage (flow cytometry); details: SFM1 base medium, HGF 10×=50 ng/ml, IC 50 μM, HC 138 nM, T3 30 nM, DAPT 5 or 10 μM, FGF2 10×=100 ng/ml, SB203580 10 μM, IL6 20 ng/ml, PDGF-bb 10×=50 ng/ml
Experimental: Excess visible fat and fibrous tissue was removed prior to dissociation, and muscle fibers were dissociated using collagenase AFC A (Worthington, CLSAFA, 2000U/ml) for 45 minutes at 37° C. Muscle isolates were incubated in 1× ACK erythrocyte lysis buffer for 1 minute at room temperature. Cells were resuspended in a serum-free proliferation medium (SFM1 medium) and immediately seeded into fibronectin (4 μg cm-2 bovine fibronectin; F1141, Merck/Sigma) coated tissue culture plates, and pre-cultured at 37° C. for 72 hours. The serum-free proliferation medium that was used is as disclosed in WO 2021/158103, the contents of which are incorporated herein by reference, and is referred to therein as “SFM1” and contains: albumin (5 mg/ml), somatotropin (2 ng/ml), L-Ascorbic acid 2-phosphate (50 μg/ml), hydrocortisone (36 ng/ml), a-linolenic acid (1 μg/ml), insulin (10 μg/ml), transferrin (5.5 μg/ml), sodium selenite (0.0067 μg/ml), ethanolamine (2 μg/ml), L-alanyl-L-glutamine or glutamine (2 mM), IL-6 (5 ng/ml), FGF2 also referred to as bFGF (10 ng/ml), IGF1 (100 ng/ml), VEGF (10 ng/ml), HGF (5 ng/ml), PDGF-bb (10 ng/ml) and DMEM/F12 basal medium. In the experiments described herein, the SFM1 medium is also referred to as control (Ctrl) or base medium.
After 72 hours of pre-culture, FAPS were sorted using a MACSQuant Tyto sorter (Miltenyi) based on absence of expression of JAM1, CD45, and integrin alpha 7 (ITGA7), and the positive expression of integrin alpha 5 (ITGA5). SCs were sorted based on the absence of expression of JAM1, CD45, ITGA5, and the positive expression of ITGA7.
After FACS sorting, FAP cells and SC cells were cultured on collagen Type I coated tissue culture flasks at 37° C. and 5% CO2 in a serum-free proliferation medium (SFM1). Purities of SCs and FAPs were assessed at the end of each passage by measuring the expression of ITGA7 and ITGA5 via flow cytometry as described below.
Sorted SCs and FAPs were stained with ITGA7-PE and […]. Subsequently, cells were washed and analyzed on a MACSQuant 10 flow analyzer (Miltenyi). Unstained cells were used as a negative control, and to define gating parameters. For the compound screenings (FIG. 2A), percentage of SCs relative to FAPs was determined after one culture passage.
These informed the selection of compounds to favor the proliferation of either of the two cell types. Increasing or decreasing the concentration of growth factors targeting these receptors, or adding compounds that target downstream pathways, altered the growth of SCs relative to FAPs (FIG. 2A, FIG. 2B). As only SCs and FAPs were present in the cell cultures of FIG. 2A and 2B, measuring the relative amount (ratio) of SCs likewise provides information about the relative amount (ratio) of FAPs in the respective media. The ratio of SCs in the respective cell media was normalized against a control ratio (Ctrl; set at 1) which means that a promotion of SCs results in an increase of SCs compared to the control culture (>1), whereas a relative decrease of SCs in the medium compared to the control culture (<1) denotes at the same time for a promotion of FAP proliferation in the respective media.

SCs and FAPs [2] = assay: Long-term proliferation assay of SC/FAP mixtures on Laminin 521 with different media (FIGS. 4A-4C); details: Laminin 521 coating
Experimental: (§1) Cells were isolated, purified and cultured as described in Example 1. For long-term proliferation assays, mixtures of SCs and FAPs were cultured on different coatings (FIG. 3) or on Laminin 521 with different media (FIGS. 4A-4C). After every passage, the ratio of SCs to FAPs was measured as the ratio of ITGA7+/ITGA5−cells (SCs) to ITGA7−/ITGA5+cells (FAPs) via flow cytometry, as described in Example 1.
Using Laminin 521 as a coating, we further used the previously identified compounds to adapt the base media (Ctrl) to favor the growth of SCs over FAPs (FIGS. 4A-4C).

SCs and FAPs [3] = assay: Long-term proliferation assay of SC/FAP mixtures on different coatings (FIG. 3); details: compound applied as culture vessel coating, measured after every passage by ITGA7/ITGA5 flow cytometry
Experimental: as §1
Using long-term proliferation assays, combined with flow cytometry for ITGA7/ITGA5, we tested different compounds including extracellular matrix proteins tissue culture vessel coatings, and measured percentage of SCs over time in a cell culture that contains SCs and FAPs.

[4] = single media adaptation of base media (Ctrl): 10× HGF or T3 added

Row | Molecule | growth of SCs relative to FAPs (ratio of SCs normalized against control ratio, Ctrl set at 1) (SCs and FAPs [1]) | percentage of SCs in total cells (SCs and FAPs) over long-term proliferation (SCs and FAPs [3]) | other results
1 | C[C@H](NC(=O)Cc1cc(F)cc(F)c1)C(=O)N[C@H](C(=O)OC(C)(C)C)c1ccccc1 [DAPT] | specifically promoted the proliferation of SCs | – | –
2 | C[C@]12CCC(=O)C=C1CC[C@@H]1[C@@H]2[C@@H](O)C[C@@]2(C)[C@H]1CC[C@]2(O)C(=O)CO [HC, Hydrocortisone] | specifically promoted the proliferation of SCs | – | –
3 | COc1ccc2c(c1)c(CC(=O)O)c(C)n2C(=O)c1ccc(Cl)cc1 [IC, Indomethacin] | specifically promoted the proliferation of SCs | – | –
4 | C[S+]([O-])c1ccc(-c2nc(-c3ccc(F)cc3)c(-c3ccncc3)[nH]2)cc1 (stereo not shown) [SB203580, 4-{4-(4-Fluorophenyl)-2-[4-(methanesulfinyl)phenyl]-1H-imidazol-5-yl} pyridine] | specifically promoted the proliferation of SCs | – | –
5 | N[C@@H](Cc1cc(I)c(Oc2ccc(O)c(I)c2)c(I)c1)C(=O)O [T3, Triiodothyronine, reference compound] | specifically promoted the proliferation of SCs | – | relative growth/proliferation of SCs compared to FAPs (SCs and FAPs [2]; [4]): promoted the relative growth/proliferation of SCs compared to FAPs
6 | Interleukin 6 [IL-6] | specifically promoted the proliferation of FAPs | – | –
7 | Laminin 521: extracellular matrix protein used as tissue culture vessel coating | – | the percentage of SCs remained high | percentage of SCs in total cells (SCs and FAPs) over long-term proliferation (SCs and FAPs [3]; listed as laminin 521): allow for maintaining high percentages of SCs during proliferation
8 | collagen | – | the proportion of FAPs increased quickly over 3 passages | percentage of SCs in total cells (SCs and FAPs) over long-term proliferation (SCs and FAPs [3]; listed as Collagen): favor proliferation of FAPs
9 | fibroblast growth factor 2 [FGF2] | specifically promoted the proliferation of SCs | – | –
10 | fibronectin | – | the proportion of FAPs increased quickly over 3 passages; also recorded: favor proliferation of FAPs | –
11 | hepatocyte growth factor [HGF] | specifically promoted the proliferation of SCs | – | relative growth/proliferation of SCs compared to FAPs (SCs and FAPs [2]; [4]): promoted the relative growth/proliferation of SCs compared to FAPs
12 | B1 | – | the percentage of SCs remained high | percentage of SCs in total cells (SCs and FAPs) over long-term proliferation (SCs and FAPs [3]; listed as Vitronectin): allow for maintaining high percentages of SCs during proliferation
13 | B2 | specifically promoted the proliferation of FAPs | – | relative growth/proliferation of SCs compared to FAPs (SCs and FAPs [2]; single media adaptation 0× PDGF-bb (PDGF-bb absent from base media)): promoted the relative growth/proliferation of SCs compared to FAPs
